Results on four compounds are retold here after patent publication EP3822637A1, “METHOD FOR DETERMINING PARP INHIBITOR RESPONSIVENESS AND IMPROVING PARP INHIBITOR THERAPY” (Universität Zürich, priority 2019, dated 2021).

One assay concerns cancer cells. Briefly: Clonogenic survival assay, Heclin combined with PARPi. Format: cell-based. The conditions noted are these: Heclin combined with PARP inhibitor Olaparib; Fig. 16d. As to the method:
Cells transfected with the indicated siRNAs were seeded at single cell density and exposed to PARPi at the indicated final concentration. All conditions were performed in triplicates. Cells were then incubated for 10 days and the number of colonies with more than 50 cells was counted after staining with crystal violet (0.5% crystal violet in 20% ethanol). GraphPad Prism was used to display clonogenic survival data.

A further assay concerns PARP1. Description: PARP1 protein levels in treated cells (Western blot / high-content microscopy). Particulars: U-2 OS cancer cells; Fig. 16c.
Another assay concerns the target Smurf2 (Homo sapiens, UniProt Q9HAU4). The conditions noted are these: cited from earlier work.
A further assay concerns the target T1, Nedd4 (Homo sapiens, UniProt P46934).
T1 sequence (P46934 1-1319): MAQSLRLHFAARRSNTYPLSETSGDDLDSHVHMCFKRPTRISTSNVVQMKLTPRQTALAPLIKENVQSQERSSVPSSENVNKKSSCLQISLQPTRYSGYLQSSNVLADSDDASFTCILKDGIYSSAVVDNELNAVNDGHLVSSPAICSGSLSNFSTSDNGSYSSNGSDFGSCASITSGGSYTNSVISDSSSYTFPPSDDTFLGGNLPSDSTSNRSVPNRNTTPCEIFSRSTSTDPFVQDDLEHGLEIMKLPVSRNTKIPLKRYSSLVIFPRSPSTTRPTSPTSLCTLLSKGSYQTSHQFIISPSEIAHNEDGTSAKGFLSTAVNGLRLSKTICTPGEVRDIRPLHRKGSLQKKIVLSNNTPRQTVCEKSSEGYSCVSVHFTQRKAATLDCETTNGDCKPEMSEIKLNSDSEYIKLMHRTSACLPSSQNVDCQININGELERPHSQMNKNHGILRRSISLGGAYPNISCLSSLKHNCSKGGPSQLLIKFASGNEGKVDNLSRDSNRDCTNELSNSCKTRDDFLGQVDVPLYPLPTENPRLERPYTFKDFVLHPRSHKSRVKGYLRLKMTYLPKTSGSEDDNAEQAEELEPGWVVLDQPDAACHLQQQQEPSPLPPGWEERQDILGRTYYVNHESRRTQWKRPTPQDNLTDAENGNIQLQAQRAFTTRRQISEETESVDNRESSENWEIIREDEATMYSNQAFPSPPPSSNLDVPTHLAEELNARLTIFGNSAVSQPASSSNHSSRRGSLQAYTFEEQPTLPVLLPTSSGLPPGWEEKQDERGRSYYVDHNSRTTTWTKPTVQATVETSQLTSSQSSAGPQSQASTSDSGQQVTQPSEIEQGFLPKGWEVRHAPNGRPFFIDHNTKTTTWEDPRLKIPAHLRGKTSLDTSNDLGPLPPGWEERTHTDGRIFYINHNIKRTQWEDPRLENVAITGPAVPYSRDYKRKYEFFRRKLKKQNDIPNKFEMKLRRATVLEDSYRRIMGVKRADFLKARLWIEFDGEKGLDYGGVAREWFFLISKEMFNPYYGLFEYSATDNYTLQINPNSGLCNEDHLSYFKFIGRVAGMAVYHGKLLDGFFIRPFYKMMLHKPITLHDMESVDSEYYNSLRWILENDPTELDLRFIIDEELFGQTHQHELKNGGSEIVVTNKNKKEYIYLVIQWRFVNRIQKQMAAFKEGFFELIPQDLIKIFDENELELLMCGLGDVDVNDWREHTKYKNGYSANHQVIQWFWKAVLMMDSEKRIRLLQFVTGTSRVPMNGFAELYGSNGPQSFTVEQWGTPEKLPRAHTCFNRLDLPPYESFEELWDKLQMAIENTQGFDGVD
Particulars: cited from earlier work.

The target in assay [1] is T2, TRIP12 (Homo sapiens, UniProt Q14669).
T2 construct: The full-length TRIP12 (TRIP12-203, transcript ENST 00000389044.8) was cloned into the pAc-GFP1-C1 (Clontech) vector; expressed in transfected cells
T2 sequence (Q14669 with tags, fused parts or gaps): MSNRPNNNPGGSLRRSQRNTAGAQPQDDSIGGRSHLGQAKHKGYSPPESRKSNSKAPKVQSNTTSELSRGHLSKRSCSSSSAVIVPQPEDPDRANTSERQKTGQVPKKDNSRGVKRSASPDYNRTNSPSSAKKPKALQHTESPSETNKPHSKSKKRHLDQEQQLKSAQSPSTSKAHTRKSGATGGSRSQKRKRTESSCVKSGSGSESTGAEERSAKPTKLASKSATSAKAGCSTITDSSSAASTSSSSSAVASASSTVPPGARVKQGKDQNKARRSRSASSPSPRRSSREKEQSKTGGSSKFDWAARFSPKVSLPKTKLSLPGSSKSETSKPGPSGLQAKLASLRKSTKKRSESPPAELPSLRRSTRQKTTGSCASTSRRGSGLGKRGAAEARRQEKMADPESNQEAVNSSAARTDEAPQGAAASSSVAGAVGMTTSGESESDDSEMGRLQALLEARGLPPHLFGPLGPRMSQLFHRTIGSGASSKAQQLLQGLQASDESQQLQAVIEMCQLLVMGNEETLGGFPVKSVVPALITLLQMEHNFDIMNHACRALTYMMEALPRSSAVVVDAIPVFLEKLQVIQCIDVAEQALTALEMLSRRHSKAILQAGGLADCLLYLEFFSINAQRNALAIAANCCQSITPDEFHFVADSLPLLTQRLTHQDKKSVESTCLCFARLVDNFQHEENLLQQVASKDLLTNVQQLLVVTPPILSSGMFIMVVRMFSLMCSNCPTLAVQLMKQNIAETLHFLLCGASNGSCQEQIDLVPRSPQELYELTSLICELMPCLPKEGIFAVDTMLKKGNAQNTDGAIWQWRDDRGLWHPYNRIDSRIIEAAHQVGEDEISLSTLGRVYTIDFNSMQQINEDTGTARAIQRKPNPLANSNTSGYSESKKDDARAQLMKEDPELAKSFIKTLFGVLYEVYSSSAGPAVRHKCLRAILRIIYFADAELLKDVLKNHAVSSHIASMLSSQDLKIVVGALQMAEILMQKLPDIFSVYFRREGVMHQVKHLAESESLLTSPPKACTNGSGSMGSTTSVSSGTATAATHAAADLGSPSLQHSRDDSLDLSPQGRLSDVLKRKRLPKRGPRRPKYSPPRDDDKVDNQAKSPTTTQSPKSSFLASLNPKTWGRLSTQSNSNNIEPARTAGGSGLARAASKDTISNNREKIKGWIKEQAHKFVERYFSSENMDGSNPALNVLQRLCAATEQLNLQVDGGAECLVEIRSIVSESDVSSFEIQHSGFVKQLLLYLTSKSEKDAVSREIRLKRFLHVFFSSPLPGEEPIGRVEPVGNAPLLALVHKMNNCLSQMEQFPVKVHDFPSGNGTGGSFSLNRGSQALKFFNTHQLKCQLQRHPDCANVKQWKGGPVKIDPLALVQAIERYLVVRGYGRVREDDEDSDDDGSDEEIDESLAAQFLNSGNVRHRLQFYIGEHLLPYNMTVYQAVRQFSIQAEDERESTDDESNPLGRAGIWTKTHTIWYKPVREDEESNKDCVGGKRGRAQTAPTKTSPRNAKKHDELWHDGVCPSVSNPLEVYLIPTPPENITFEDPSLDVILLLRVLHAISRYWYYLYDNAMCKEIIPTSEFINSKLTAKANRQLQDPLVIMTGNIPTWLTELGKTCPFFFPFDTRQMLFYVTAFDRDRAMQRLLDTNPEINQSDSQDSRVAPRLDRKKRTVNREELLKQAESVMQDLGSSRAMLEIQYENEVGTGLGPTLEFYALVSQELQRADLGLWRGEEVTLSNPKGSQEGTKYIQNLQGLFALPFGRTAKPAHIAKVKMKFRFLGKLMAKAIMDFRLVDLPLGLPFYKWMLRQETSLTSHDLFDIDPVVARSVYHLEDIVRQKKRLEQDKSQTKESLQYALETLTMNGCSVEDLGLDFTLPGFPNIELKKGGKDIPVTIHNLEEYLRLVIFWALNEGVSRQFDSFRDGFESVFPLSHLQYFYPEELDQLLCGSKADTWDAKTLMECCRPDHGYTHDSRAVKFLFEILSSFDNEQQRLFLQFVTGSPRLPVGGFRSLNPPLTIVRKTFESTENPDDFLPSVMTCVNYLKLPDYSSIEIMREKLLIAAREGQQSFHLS
Description: In vivo ubiquitin ligase activity assay in cells (GFP-TRIP12 and HA-ubiquitin over-expressed, immunoprecipitation). The assay is classed as cell-based. The conditions noted are these: GFP-TRIP12 immunoprecipitated and probed for HA-ubiquitin; Fig. 16b. How it is done:
HEK293T or U-2 OS cells transfected with the indicated plasmids and siRNAs were washed twice with cold PBS and directly lysed on ice with RIPA buffer (50 mM Tris- HCI pH 8.0, 150 mM NaCl, 1% Igepal CA630, 0.1% SDS, 0.1% Na-deoxycholic acid), supplemented with 2 mM MgCl2, cOmplete inhibitor cocktail (Roche), phosphoSTOP (Roche), 25 U/ml benzonase, 1 mM phenylmethylsulfonylfluoride (PMSF), and 10 mM N-ethylmaleimide (NEM). Lysates were incubated for 5 minutes at room temperature and then centrifuged at 15'000 x g for 15 minutes. […] Beads were collected by centrifugation, washed four times with RIPA buffer and eluted by boiling in 10x SDS-PAGE sample buffer. Samples were subjected to SDS-PAGE for immunoblotting.

Assay [2] concerns the target T2, TRIP12. Briefly: In vitro ubiquitin ligase activity assay (TRIP12 auto-ubiquitylation, with and without PAR chains). Format: biochemical. The conditions noted are these: absence and presence of PAR chains; Fig. 16a. As to the method:
HEK293T cells were transfected with plasmids encoding FLAG-TRIP12 WT or the point mutants R869A or C2034A. Cells were lysed in TNE buffer (50 mM Tris-HCI pH 8.0, 150 mM NaCl, 0,1% Igepal CA630, 1 mM EDTA) supplemented with 2 mM MgCl2, cOmplete inhibitor cocktail (Roche), phosphoSTOP (Roche) and 25 U/ml benzonase. One milligram of protein lysates was immunoprecipitated using protein G- sepharose (GE Heltcare) coupled to 1 µl of anti-FLAG antibody for 3 hours at 4°C. After four washes with IP buffer the beads were first equilibrated in TE buffer (50 mM Tris-HCI pH 8.0, 150 mM NaCl) supplemented with cOmplete inhibitor cocktail (Roche), 1 mM PMSF, and then re-suspended in 5 volumes of TE buffer with 0.3 mg/ml FLAG peptide (3x FLAG peptide, Sigma) for 1 hour at 4°C at low rpm. Samples were then centrifuged at 100 x g for two minutes and the supernatant containing the eluted protein was stored at -80°C.
Auto-PARylated PARP1 was bound to histidine beads (ProBond) for 45 minutes at 4°C. The beads were then equilibrated in reaction buffer (25 mM Tris-HCI pH 7.4, 100 mM NaCl) and equally distributed in reaction tubes. […]

A further assay concerns the target WWP2 (Homo sapiens, UniProt O00308). The conditions noted are these: cited from earlier work.
Assay [3] concerns BRCA-proficient cancer cells. Description: Clonogenic survival (colony formation) assay with PARPi after siRNA down-regulation of TRIP12. The assay is classed as cell-based, Human. The conditions noted are these: siRNA against TRIP12; increasing doses of PARPi; 10 days; rescued by PARP1 co-depletion; Fig. 6a-d, 12a-c. How it is done: Human U-2 OS cells (ATCC), RPE-1 (ATCC), HEK293T (ATCC), MCF-7 (kindly provided by Ross Chapman), MDA-MB-436 (kindly provided by Michael Hottiger), U-2 OS PARP1 KO cells (kindly provided by Keith Caldecott) and HeLa Kyoto PARP1-LAP cells stably expressing EGFP-tagged PARP1 from its natural promoter (kindly provided by Stoyno S. Stoynov) were grown under standard sterile cell culture conditions (37°C, humidified atmosphere, 5% CO2) in Dulbecco's modified Eagle's medium (DMEM, Thermo Fisher Scientific) containing 10% fetal bovine serum (GIBCO) and 1% of penicillin-streptomycin antibiotics. HCC1143 cells (kindly provided by Mohamed Bentires-Alj) were grown in RPMI-1640 medium (Thermo Fisher Scientific) containing 10% fetal bovine serum (GIBCO) and 1% penicillin- streptomycin antibiotics. SUM149PT (generated by the Ethier laboratory; available at http://www.bioivt.com/ and kindly provided by Alessandro Sartori) were grown in Ham's F-12 medium (Thermo Fisher Scientific) containing 10% fetal bovine serum and 1% of penicillin-streptomycin antibiotics. All cultured cells were routinely tested for mycoplasma contamination and assessed by quantitative image-based cytometry (QIBC) for proper proliferation and absence of abnormal stress signals. […] Transfections with siRNAs were performed for 72h, unless stated otherwise, with Ambion Silencer Select siRNA using Lipofectamine RNAi/MAX (Thermo Fisher Scientific). For individual transfections the siRNAs were used at a final concentration of 25nM. When multiple siRNAs were combined, the final concentration was kept constant in all samples of an experiment. The following Ambion Silencer Select siRNAs were used: TRIP12 (s17808, s17809, s17810), PARP1 (s1098), DTX1 (s4355, s4356), DTX2 (s41519, s223231), DTX4 (s23319, s23321), HUWE1 (s19596, s19597), RNF146 (s37821, s37822). […] Cells were then incubated for 10 days and the number of colonies with more than 50 cells was counted after staining with crystal violet (0.5% crystal violet in 20% ethanol). […]

“Also recorded” adds a separate entry of the source.

Smurf2, sequence (Q9HAU4 whole entry, species assumed): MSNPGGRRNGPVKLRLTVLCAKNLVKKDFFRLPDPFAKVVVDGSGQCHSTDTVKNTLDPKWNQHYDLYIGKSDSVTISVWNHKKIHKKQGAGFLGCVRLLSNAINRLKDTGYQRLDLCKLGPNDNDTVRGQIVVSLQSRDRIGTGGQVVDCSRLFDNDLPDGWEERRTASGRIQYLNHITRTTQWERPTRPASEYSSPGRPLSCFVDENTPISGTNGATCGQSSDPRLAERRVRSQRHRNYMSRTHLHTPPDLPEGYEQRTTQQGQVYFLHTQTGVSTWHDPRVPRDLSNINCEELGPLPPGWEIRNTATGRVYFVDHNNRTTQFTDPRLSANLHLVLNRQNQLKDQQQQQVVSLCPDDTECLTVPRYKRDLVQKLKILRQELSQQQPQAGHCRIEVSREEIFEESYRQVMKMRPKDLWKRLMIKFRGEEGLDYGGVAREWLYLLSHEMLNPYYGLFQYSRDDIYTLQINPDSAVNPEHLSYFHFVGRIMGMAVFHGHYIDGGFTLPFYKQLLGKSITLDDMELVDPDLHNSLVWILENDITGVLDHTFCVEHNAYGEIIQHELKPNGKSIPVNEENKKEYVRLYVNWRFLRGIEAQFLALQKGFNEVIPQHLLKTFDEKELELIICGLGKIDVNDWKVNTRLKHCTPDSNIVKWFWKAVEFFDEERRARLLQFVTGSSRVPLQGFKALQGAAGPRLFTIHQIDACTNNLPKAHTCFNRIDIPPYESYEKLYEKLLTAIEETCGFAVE
WWP2, sequence (O00308 whole entry, species assumed): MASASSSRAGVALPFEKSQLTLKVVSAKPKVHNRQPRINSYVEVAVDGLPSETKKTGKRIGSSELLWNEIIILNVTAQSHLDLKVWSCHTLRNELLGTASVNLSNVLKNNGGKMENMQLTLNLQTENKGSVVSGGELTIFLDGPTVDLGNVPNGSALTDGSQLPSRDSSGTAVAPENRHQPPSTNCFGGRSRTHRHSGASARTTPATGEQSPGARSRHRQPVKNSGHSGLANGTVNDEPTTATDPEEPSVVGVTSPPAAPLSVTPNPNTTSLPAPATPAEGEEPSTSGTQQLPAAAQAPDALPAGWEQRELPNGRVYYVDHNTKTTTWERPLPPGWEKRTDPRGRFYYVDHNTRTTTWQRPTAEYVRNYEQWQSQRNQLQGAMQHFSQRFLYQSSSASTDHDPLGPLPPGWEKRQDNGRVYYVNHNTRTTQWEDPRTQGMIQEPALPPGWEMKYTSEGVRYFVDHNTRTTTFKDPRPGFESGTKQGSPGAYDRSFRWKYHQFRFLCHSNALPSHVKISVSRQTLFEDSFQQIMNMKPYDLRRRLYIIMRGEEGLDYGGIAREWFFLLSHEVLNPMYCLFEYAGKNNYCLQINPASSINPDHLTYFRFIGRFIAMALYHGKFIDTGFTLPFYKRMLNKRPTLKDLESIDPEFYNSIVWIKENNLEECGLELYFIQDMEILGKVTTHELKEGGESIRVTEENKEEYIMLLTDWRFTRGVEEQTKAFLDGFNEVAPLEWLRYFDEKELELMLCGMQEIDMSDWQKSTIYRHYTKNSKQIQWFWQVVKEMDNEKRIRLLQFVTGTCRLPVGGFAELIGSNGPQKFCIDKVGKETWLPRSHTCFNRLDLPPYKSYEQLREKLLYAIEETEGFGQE
Description for PARP1: Images were analyzed with the inbuilt Olympus ScanR Image Analysis Software Version 3.0.1, a dynamic background correction was applied, and nuclei segmentation was performed using an integrated intensity-based object detection module based on the DAPI signal. All downstream analyses were focused on properly detected nuclei containing a 2C-4C DNA content as measured by total and mean DAPI intensities. Fluorescence intensities were quantified and are depicted as arbitrary units. Color-coded scatter plots of asynchronous cell populations were generated with Spotfire data visualization software (TIBCO) and GraphPad Prism 8.0 was used for depicting data as violin plots. Within one experiment, similar cell numbers were compared for the different conditions. […] Representative scatter plots and quantifications of independent experiments, typically containing several thousand cells each, are shown. […]

Take `CCc1ccc(C=CC(=O)Nc2ccc(C(C)=O)cc2)o1` [Heclin, N-(4-Acetylphenyl)-3-(5-ethyl-2-furanyl)-2-propenamide]: the “sensitization of cancer cells to PARPi in clonogenic survival assays” value in the assay with cancer cells is given as “synergizes with the PARP inhibitor Olaparib to kill cancer cells; also recorded: sensitized cancer cells to PARPi”. Besides, the “PARP1 levels upon Heclin treatment of cells” value with PARP1 was “stabilizes PARP1 in U-2 OS cancer cells in a time- and dose-dependent manner; also recorded: elevated PARP1 levels, in a time- and dose-dependent manner”. For the same compound, on Smurf2, the “inhibition of ubiquitin ligase Smurf2” value was “inhibit”. For the same compound, the “inhibition of ubiquitin ligase Nedd4” value on Nedd4 is “inhibit”. The “TRIP12 activity in vivo” value on TRIP12 [1] is “inhibited”. The “TRIP12 activity in vitro” value on TRIP12 [2] is “inhibited”. On WWP2, the “inhibition of ubiquitin ligase WWP2” value is given as “inhibit”.

On to `O=C(c1cc(Cc2n[nH]c(=O)c3ccccc23)ccc1F)N1CCN(C(=O)C2CC2)CC1` [Olaparib], for which, in assay [3], the “clonogenic survival upon PARPi exposure after TRIP12 down-regulation” value (from here on “clonogenic survival upon PARPi exposure”) is on record as “greatly sensitized”.

Take `CNCc1ccc(-c2[nH]c3cc(F)cc4c3c2CCNC4=O)cc1` [Rucaparib]: in assay [3], the “clonogenic survival upon PARPi exposure” value is “Very similar results”.

With `Cn1ncnc1[C@H]1c2n[nH]c(=O)c3cc(F)cc(c23)N[C@@H]1c1ccc(F)cc1` [Talazoparib], the “clonogenic survival upon PARPi exposure” value in assay [3] is “Very similar results”.
